Experimental data: BigSolDB 2.1

CC(=O)Oc1ccccc1C(=O)Nc1ncc([N+](=O)[O-])s1
solubility (mole fraction)
Details	278.15 K	283.15 K	288.15 K	293.15 K	298.15 K	303.15 K	308.15 K	313.15 K	318.15 K	323.15 K
in DMF	0.0665	0.0716	0.077	0.0825	0.0882	0.0934	0.0992	0.106	0.112	0.118
in NMP	0.0891	0.093	0.0964	0.1	0.104	0.107	0.112	0.116	0.119	0.123
in isopropanol	0.000205	0.000239	0.000277	0.000319	0.000367	0.000419	0.000476	0.000542	0.000607	0.000684
in water	1.26e-07	1.66e-07	2.23e-07	2.93e-07	3.81e-07	4.98e-07	6.34e-07	8.11e-07	9.9e-07	1.24e-06
